Earlier results as cited in PMC12525602, “Identification of Selective α-Glucosidase Inhibitors via Virtual Screening with Machine Learning” (Molecules, 2025).

tested on: α-glucosidase; details: activity label in the 300-compound modeling dataset (Table S5); 1 = active, 0 = inactive; cited from earlier work

Row | SMILES | activity
1 | COc1ccc([C@@H]2CC(=O)c3c(O)cc(O[C@@H]4O[C@H](CO[C@@H]5O[C@@H](C)[C@H](O)[C@@H](O)[C@H]5O)[C@@H](O)[C@H](O)[C@H]4O)cc3O2)cc1O [compound 185] | 1
2 | Cc1ccc(-c2csc(N/N=C/c3ccc(N4CCC(C)CC4)cc3)n2)cc1 [compound 186] | 1
3 | COc1cccc(C(=O)C2C(O)c3ccccc3S(=O)(=O)N2CC(=O)Nc2ccccc2Br)c1 (centres unmarked) [compound 187] | 1
4 | CCCCCCCCCCCCCCCC(N)=O [compound 188] | 1
5 | COc1ccc(Br)cc1-c1nnc(/N=C(/CSc2nnc3c(n2)[nH]c2ccccc23)c2ccc(C)cc2)s1 [compound 189] | 1
6 | Nc1ccc(CCC(=O)N2CC[C@@H](O)[C@@H](O)C2)cc1 [compound 190] | 1
7 | O=C(NNS(=O)(=O)c1ccc(Cl)cc1)c1cc2cc(F)ccc2[nH]1 [compound 191] | 1
8 | O=C(CCc1ccc(O)cc1)c1c(O)cc(O)cc1O[C@@H]1O[C@H](CO)[C@@H](O)[C@H](O)[C@H]1O [compound 192] | 1
9 | N#Cc1ccc2[nH]c(-c3nnc(Nc4ccc(Cl)c(Cl)c4)s3)cc2c1 [compound 193] | 1
10 | CC1CCN(c2ccc(/C=N/Nc3nc(-c4ccc(O)cc4)cs3)cc2)CC1 [compound 194] | 1
11 | O=C(O)/C=C/c1ccc(O)cc1 [compound 195] | 1
12 | COc1cccc(C(=O)C2C(O)c3ccccc3S(=O)(=O)N2CC(=O)Nc2cccc(C)c2)c1 (centres unmarked) [compound 196] | 1
13 | Cc1ccc(-c2cc(C(F)(F)F)nn2-c2ccc(S(=O)(=O)NC(=O)c3ccccc3)cc2)cc1 [compound 197] | 1
14 | COc1ccc(OC)c(/C(CSc2nnc3c(n2)[nH]c2ccccc23)=N\c2nnc(-c3cc(Br)ccc3OC)s2)c1 [compound 198] | 1
15 | COc1ccc(Br)cc1-c1nnc(/N=C(/CSc2nnc3c(n2)[nH]c2ccccc23)c2ccccc2[N+](=O)[O-])s1 [compound 199] | 1
16 | Cc1ccc(-c2cc(C(F)(F)F)nn2-c2ccc(S(=O)(=O)NC(=O)c3cccc([N+](=O)[O-])c3)cc2)cc1 [compound 200] | 1
17 | Cc1ccc(-c2cc(C(F)(F)F)nn2-c2ccc(S(=O)(=O)NC(=O)c3ccccc3[N+](=O)[O-])cc2)cc1 [compound 201] | 1
18 | COc1cccc(C(=O)C2C(O)c3ccccc3S(=O)(=O)N2CC(=O)Nc2ccc(Br)cc2)c1 (centres unmarked) [compound 202] | 1
19 | Oc1cccc(-c2cc3cccc(Cl)c3o2)c1 [compound 203] | 1
20 | COc1cc(/C=C/C(=O)O)cc(-c2cc(/C=C/C(=O)O)cc(OC)c2O)c1O [compound 205] | 1

Row | SMILES | activity
21 | O=C(NNS(=O)(=O)c1ccc(F)cc1)c1cc2cc(F)ccc2[nH]1 [compound 207] | 1
22 | Cc1ccc(-c2cc(C(F)(F)F)nn2-c2ccc(S(=O)(=O)NC(=O)c3ccc(Br)cc3)cc2)cc1 [compound 208] | 1
23 | Oc1cccc(-c2cc3cccc(Br)c3o2)c1 [compound 209] | 1
24 | COc1cc(/C=C/C(=O)O)ccc1O/C(=C\c1cc(OC)c(O)c(-c2cc(/C=C/C(=O)O)cc(OC)c2O)c1)C(=O)O [compound 210] | 1
25 | O=C1CC(c2ccc(O)cc2)Oc2cc(O)cc(O)c21 (centres unmarked) [compound 211] | 1
26 | Oc1cc(O)cc(-c2cc3cccc(Cl)c3o2)c1 [compound 212] | 1
27 | COc1ccc(/C(CSc2nnc3c(n2)[nH]c2ccccc23)=N\c2nnc(-c3ccccc3[N+](=O)[O-])s2)cc1 [compound 213] | 1
28 | O=C(COc1c(I)cc(Cl)c2cccnc12)c1ccccc1 [compound 214] | 1
29 | CC(C)(C)c1ccc(-c2csc(N/N=C/c3ccccc3OCc3cc4ccccc4oc3=O)n2)cc1 [compound 215] | 1
30 | COc1ccc(/C(CSc2nnc3c(n2)[nH]c2ccccc23)=N\c2nnc(-c3ccc([N+](=O)[O-])cc3)s2)cc1 [compound 217] | 1
31 | O=c1c(O)c(-c2ccc(O)cc2)oc2c(O)c(O)cc(O)c12 [compound 219] | 1
32 | C=C(C)[C@@H]1CCC2=Cc3nc(NC(=O)c4ccc(Cl)cc4)sc3[C@@H](C)[C@]2(C)C1 [compound 220] | 1
33 | Oc1c(Cl)cc(Cl)cc1-c1nnc(/N=C(/CSc2nnc3c(n2)[nH]c2ccccc23)c2ccc(-c3ccccc3)cc2)s1 [compound 221] | 1
34 | O=[N+]([O-])c1ccccc1-c1nnc(/N=C(/CSc2nnc3c(n2)[nH]c2ccccc23)c2ccc(-c3ccccc3)cc2)s1 [compound 223] | 1
35 | COc1cc(/C=N/N=C2\C(=O)Nc3ccccc32)ccc1OCc1cn(Cc2ccccc2)nn1 [compound 224] | 1
36 | O=C(CCc1ccc(NS(=O)(=O)c2ccc(C(F)(F)F)cc2)cc1)N1CC[C@H](O)[C@H](O)C1 [compound 225] | 1
37 | O=C(NNS(=O)(=O)c1ccccc1F)c1cc2cc(F)ccc2[nH]1 [compound 226] | 1
38 | Fc1ccc(CNc2cccc(-c3nc4ccccc4[nH]3)c2)cc1 [compound 227] | 1
39 | CCOC(=O)c1ccc(-n2c(/C=C3\OC(=O)c4c3cc(C)[nH]c4=O)ccc2CO)cc1 [compound 228] | 1

same assay, conditions: activity label of the modeling dataset, Table S5; cited from earlier work

Row | SMILES | activity
40 | O=C1/C(=N\N=C\c2ccc(OCc3cn(Cc4ccccc4)nn3)cc2)c2ccccc2N1c1ccc(Br)cc1 [compound 145] | 0
41 | Cc1ccccc1Cn1cc(COc2ccc(/C=N/N=C3\C(=O)N(c4ccc(Br)cc4)c4ccccc43)cc2)nn1 [compound 146] | 0
42 | Cc1ccc(Cn2cc(COc3ccc(/C=N/N=C4\C(=O)N(c5ccc(Br)cc5)c5ccccc54)cc3)nn2)cc1 [compound 147] | 0
43 | O=C1/C(=N\N=C\c2ccc(OCc3cn(Cc4ccccc4F)nn3)cc2)c2ccccc2N1c1ccc(Br)cc1 [compound 148] | 0
44 | O=C(CSc1nc2ccccc2cc1-c1nc2ccccc2[nH]1)Nc1cccc(Cl)c1 [compound 149] | 1
45 | O=C(NNS(=O)(=O)c1ccc(C(F)(F)F)cc1)c1cc2cc(F)ccc2[nH]1 [compound 150] | 1
46 | COc1cc(Br)ccc1-c1nnc(/N=C(/CSc2nnc3c(n2)[nH]c2ccccc23)c2ccc(Br)cc2Br)s1 [compound 151] | 1
47 | Brc1cc(-c2ccccc2)ccc1/C(CSc1nnc2c(n1)[nH]c1ccccc12)=N\c1nnc(-c2ccc3ccccc3c2)s1 [compound 152] | 1
48 | O=[N+]([O-])c1ccccc1-c1nnc(/N=C(/CSc2nnc3c(n2)[nH]c2ccccc23)c2ccc(Br)cc2Br)s1 [compound 153] | 1
49 | N#Cc1ccc2[nH]c(-c3nnc(Nc4cccc([N+](=O)[O-])c4)s3)cc2c1 [compound 154] | 1
50 | O=C(CCc1ccc(O)cc1)c1c(O)cc(O[C@@H]2O[C@H](CO)[C@@H](O)[C@H](O)[C@H]2O)cc1O [compound 155] | 1
51 | COc1cc(/C=C(\Oc2ccc(/C=C/C(=O)O)cc2OC)C(=O)O)ccc1O [compound 157] | 1
52 | O=c1c(O[C@@H]2O[C@H](CO)[C@@H](O)[C@H](O)[C@H]2O)c(-c2ccc(O)c(O)c2)oc2cc(O)cc(O)c12 [compound 159] | 1
53 | O=C(O)CCCCCCCCCCCCCCCO [compound 160] | 1
54 | COc1cc(-c2oc3cc(O)cc(O)c3c(=O)c2O)ccc1O [compound 161] | 1
55 | CC(C)=CCC1=C(O)C(CC=C(C)C)(CC=C(C)C)C(=O)C(C(=O)CC(C)C)=C1O [compound 163] | 1
56 | COc1ccc(Br)cc1-c1nnc(/N=C(/CSc2nnc3c(n2)[nH]c2ccccc23)c2cccc([N+](=O)[O-])c2)s1 [compound 164] | 1
57 | COc1ccc(Br)cc1-c1nnc(/N=C(/CSc2nnc3c(n2)[nH]c2ccccc23)c2ccc(-c3ccccc3)cc2)s1 [compound 165] | 1

Row | SMILES | activity
58 | COc1cc(/C=C(\C(=O)O)c2cc(/C=C/C(=O)O)cc(OC)c2O)ccc1O [compound 166] | 1
59 | COc1cc(O)c(CC=C(C)C)c(O)c1C(=O)/C=C/c1ccc(O)cc1 [compound 167] | 1
60 | COc1cccc(C(=O)C2C(O)c3ccccc3S(=O)(=O)N2CC(=O)Nc2ccccc2Cl)c1 (centres unmarked) [compound 168] | 1
61 | CC(C)=CCc1c(O)cc2c(c1O)C(=O)CC(c1ccc(O)cc1)O2 (centres unmarked) [compound 169] | 1
62 | N#Cc1ccc2[nH]c(-c3nnc(Nc4ccc(F)cc4)s3)cc2c1 [compound 170] | 1
63 | O=[N+]([O-])c1ccccc1-c1nnc(/N=C(/CSc2nnc3c(n2)[nH]c2ccccc23)c2cccc([N+](=O)[O-])c2Br)s1 [compound 171] | 1
64 | COc1ccc(/C(CSc2nnc3c(n2)[nH]c2ccccc23)=N\c2nnc(-c3cc(Br)ccc3OC)s2)cc1 [compound 173] | 1
65 | CC(C)C1=CC2=CC[C@@H]3[C@](C)(CCC[C@@]3(C)C(=O)O)[C@H]2CC1 [compound 174] | 1
66 | C[C@@H]1O[C@@H](Oc2c(-c3ccc(O)c(O)c3)oc3cc(O)cc(O)c3c2=O)[C@H](O)[C@H](O)[C@H]1O [compound 175] | 1
67 | O=C(CCc1ccc(O)cc1)c1c(O)cc(O)cc1O [compound 176] | 1
68 | COc1cccc(C(=O)C2=C(O)c3ccccc3S(=O)(=O)C2CC(=O)Nc2ccc(Cl)cc2)c1 (centres unmarked) [compound 177] | 1
69 | COc1cccc(C(=O)C2C(O)c3ccccc3S(=O)(=O)N2CC(=O)Nc2ccc(Cl)cc2)c1 (centres unmarked) [compound 178] | 1
70 | COc1cc(O)c(CC=C(C)C)c2c1C(=O)CC(c1ccc(O)cc1)O2 (centres unmarked) [compound 179] | 1
71 | O=[N+]([O-])c1cccc(/C(CSc2nnc3c(n2)[nH]c2ccccc23)=N\c2nnc(-c3cc(Cl)cc(Cl)c3O)s2)c1 [compound 180] | 1
72 | O=C(NNS(=O)(=O)c1ccc(Br)cc1)c1cc2cc(F)ccc2[nH]1 [compound 182] | 1
73 | COc1cc(/C=C/C(=O)O)ccc1O [compound 183] | 1
74 | N#Cc1ccc2[nH]c(-c3nnc(Nc4ccccc4F)s3)cc2c1 [compound 184] | 1
